Where two headings read alike, the source gives them in different places. Marks after values point to notes of the source that are not given here.
Assays:
PSMA = biological target: T1, PSMA (Homo sapiens, UniProt Q04609); assay: binding kinetics in real time on living PC3-pip cells (LigandTracer Yellow)
T1 construct: expressed in transfected cells; host or cells: PC3-pip (PSMA-transfected PC-3 prostate carcinoma cells), from Prof; Martin G. Pomper, Johns Hopkins University
Method: The binding kinetics of technetium-99m-labeled BQ0413, BQ0500, and BQ0501 were determined in PC3-pip cells in real-time using LigandTracer Yellow (Ridgeview Instruments AB, Uppsala, Sweden). The activity binding was recorded with 5 nM radiolabeled tracers for 150 min. After the binding kinetics were measured, the medium containing the labeled tracer was replaced with fresh medium, and the dissociation was monitored over 7 h. The association rate (k a) and the dissociation rate (k d) were computed using a 1:2 kinetic binding model in TraceDrawer software (Ridgeview Instruments AB, Uppsala, Sweden), and the equilibrium dissociation constant K D was calculated.

[1] = format: in vitro ADME, murine; conditions: 1 h
Method: (§1) To evaluate the label’s stability, 10 μL (0.25 μg) of radiolabeled conjugates was incubated with 300× molar excess of cysteine or with PBS for 1 h at room temperature. The test was run in triplicate. The release of free technetium-99m was controlled by using iTLC and radio-HPLC analysis. The stability in serum was analyzed by mixing the radioconjugates (0.25 μg in 10 μL) with murine serum or PBS (40 μL) as a control. The samples were incubated for 1 h at 37 °C and analyzed by iTLC. The experiment was performed in triplicate. The octanol–water distribution coefficient (Log D) was determined experimentally by the addition of 100 pmol of the radiolabeled tracer to an Eppendorf tube containing PBS (500 μL) and n-octanol (500 μL), pH ∼ 7.4. The solution was vortexed and centrifuged, and aliquots (50 μL) from each phase were collected and measured using a gamma counter. The experiment was performed in triplicate.

physchem = format: physicochemical; conditions: pH 7.4
Method: as §1

PC3-pip cells [2] = assay: in vitro binding specificity test; format: cell-based; conditions: 1 h, 37 °C
Method: For the in vitro binding specificity test, approximately 8 × 10^5 PC3-pip cells per well were seeded 24 h before the experiment. […] Technetium-99m-labeled tracers were added to each well to reach a concentration of 2 nM. After 1 h of incubation at 37 °C, cells were washed with PBS solution, detached, and collected. Cell-associated activity was measured using a gamma counter and presented as the percentage of added activity.

PC3-pip xenografts = assay: biodistribution and tumor targeting in PC3-pip tumor-bearing mice; format: in vivo
Excerpt: The injected masses for the in vivo experiments were chosen based on the findings for [^99mTc]-Tc-BQ0413: to study the general biodistribution of radiolabeled tracers in normal mice (NMRI), 40 pmol of tracer was used to avoid blocking of PSMA-mediated uptake in kidneys and salivary glands, to study tumor targeting, 5 nmol of tracer was used to decrease uptake in PSMA-expressing organs.
PSMA-expressing PCa xenografts were implanted in BALB/c nu/nu mice by subcutaneous injection of the PC3-pip cell suspension in PBS (10^7 cells/animal in 100 μL). The average animal weight in the experiment was 18 ± 2 g. The average tumor weight was 0.4 ± 0.2 g. For in vivo specificity control, 10^7 cells/animal PSMA-negative PC-3 cells were implanted. The average animal weight was 18 ± 1 g. The average tumor weight was 0.1 ± 0.1 g. Four mice per data point were used in the in vivo experiments.
For tumor-bearing mice, each mouse was intravenously injected with 5 nmol of [^99mTc]-Tc-BQ0413, [^99mTc]-Tc-BQ0500, and [^99mTc]-Tc-BQ0501 (60 kBq; the mass of the injected compound was adjusted with an unlabeled tracer). The mice were euthanized after lethal intraperitoneal injection of ketamine/xylazine, followed by exsanguination 1 and 3 h pi, similarly to the procedure described above.

PC3-pip cells [3] = assay: cellular processing (membrane-bound / internalized activity); format: cell-based; conditions: 2 nM, continuous incubation, after 8 h
Method: To evaluate cellular processing of technetium-99m-labeled BQ0500 and BQ0501, PC3-pip cells were incubated with the radiolabeled tracer (2 nM), and at 1, 2, 4, and 8 h of continuous incubation, the membrane-bound and internalized fractions were collected as previously described using 4 M urea solution in 0.2 M glycine buffer (pH 2) to collect membrane-bound fraction and 1 N solution of NaOH to collect the internalized fraction. The activity in the samples was measured, and the percentage of membrane-bound and internalized activity was calculated. The experiments were performed in triplicate.

[4] = PC3-pip tumor-bearing mice, 5 nmol/mouse iv, 1 h pi
[5] = PC3-pip tumor-bearing mice, 5 nmol/mouse iv, 3 h pi
[6] = PC3-pip tumor-bearing mice, 5 nmol/mouse iv, 3 h pi, listed as [99mTc]Tc-BQ0500

T1 sequence (Q04609 whole entry): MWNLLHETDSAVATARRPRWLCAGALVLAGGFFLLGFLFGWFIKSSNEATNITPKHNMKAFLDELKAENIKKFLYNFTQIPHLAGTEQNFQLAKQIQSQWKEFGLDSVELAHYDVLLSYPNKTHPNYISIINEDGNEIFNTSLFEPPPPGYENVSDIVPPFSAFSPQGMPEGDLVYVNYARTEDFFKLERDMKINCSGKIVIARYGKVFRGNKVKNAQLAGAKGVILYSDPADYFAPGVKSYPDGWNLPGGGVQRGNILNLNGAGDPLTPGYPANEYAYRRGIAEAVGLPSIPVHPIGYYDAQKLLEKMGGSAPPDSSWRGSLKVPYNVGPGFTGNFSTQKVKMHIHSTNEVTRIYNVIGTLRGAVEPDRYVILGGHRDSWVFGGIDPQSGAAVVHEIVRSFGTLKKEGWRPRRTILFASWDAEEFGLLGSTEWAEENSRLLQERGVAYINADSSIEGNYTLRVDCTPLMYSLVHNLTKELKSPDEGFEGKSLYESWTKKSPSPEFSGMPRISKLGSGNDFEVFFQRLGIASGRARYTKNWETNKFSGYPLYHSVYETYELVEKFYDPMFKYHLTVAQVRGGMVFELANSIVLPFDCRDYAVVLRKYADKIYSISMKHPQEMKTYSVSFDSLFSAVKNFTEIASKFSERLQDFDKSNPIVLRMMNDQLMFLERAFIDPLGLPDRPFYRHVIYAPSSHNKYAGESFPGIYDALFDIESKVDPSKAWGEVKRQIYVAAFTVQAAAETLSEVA

CC(=O)NC(CCCCNC(=O)CNC(=O)C(CCC(=O)O)NC(=O)C(CO)NC(=O)C(CCC(=O)O)NC(=O)CS)C(=O)NCCCCCCCC(=O)NC(Cc1ccc(O)cc1)C(=O)NC(Cc1ccc2ccccc2c1)C(=O)NCCCCC(NC(=O)NC(CCC(=O)O)C(=O)O)C(=O)O (stereo not shown) [[^99mTc]Tc-BQ0500, metal not drawn]
B max1 (binding maximum) (PSMA; 5 nM tracer, 1:2 model (1:1 for BQ0413)): 881 CPS | B max2 (binding maximum) (PSMA; 5 nM tracer, 1:2 model, second interaction): 40 CPS | Kd (PSMA; 5 nM tracer, 1:2 model, second interaction, read-out: K D2): 0.052 nM | affinity compromised in comparison with [99mTc]Tc-BQ0413 (PSMA; PC3-pip cells): 3–5 fold | Kd (PSMA; as rounded in comparison table, read-out: K D1): 0.3 nM | Kd (PSMA; as rounded in comparison table, read-out: K D2): 0.05 nM | intact tracer in PBS ([1]; PBS control, 37 °C, n = 3): 99.0 ± 0.5% | intact tracer in murine serum ([1]; mouse, 5 µg/mL): 99.7 ± 0.3% | Log D (octanol–water distribution coefficient) (physchem): −2.5 ± 0.1 | activity uptake by PC3-pip cells (PC3-pip cells [2]; 2 nM tracer): 71 ± 4 % of added activity | activity uptake by PC3-pip cells after presaturation with PSMA-11 (PC3-pip cells [2]; 250-fold excess of nonlabeled PSMA-11, 2 nM tracer): significantly (p < 0.0001) decreased | activity uptake in intestines with content, higher compared to [99mTc]Tc-BQ0413 (PC3-pip xenografts; PC3-pip tumor-bearing mice, 5 nmol): 5.3 fold | activity in carcass (PC3-pip xenografts; [4]): 7 ± 1 ^b %IA/sample | activity in intestines with content (PC3-pip xenografts; [4]): 3.9 ± 0.4 ^b, ^c, ^d %IA/sample | activity uptake in blood (PC3-pip xenografts; [4]): 1.1 ± 0.2 ^b %IA/g | activity uptake in bone (PC3-pip xenografts; [4]): 0.5 ± 0.1 ^b, ^d %IA/g | activity uptake in kidney (PC3-pip xenografts; [4]): 51 ± 3 ^b ^c %IA/g | activity uptake in liver (PC3-pip xenografts; [4]): 0.9 ± 0.2 ^b %IA/g | activity uptake in lung (PC3-pip xenografts; [4]): 1.3 ± 0.2 ^b %IA/g | activity uptake in muscle (PC3-pip xenografts; [4]): 0.3 ± 0.1 ^b %IA/g | activity uptake in pancreas (PC3-pip xenografts; [4]): 0.4 ± 0.1 ^b %IA/g | activity uptake in salivary gland (PC3-pip xenografts; [4]): 0.7 ± 0.1 ^b ^, ^d %IA/g | activity uptake in small intestines (PC3-pip xenografts; [4]): 0.6 ± 0.2 ^c %IA/g | activity uptake in spleen (PC3-pip xenografts; [4]): 2.5 ± 0.2 ^b %IA/g | activity uptake in stomach (PC3-pip xenografts; [4]): 0.47 ± 0.02 ^d %IA/g | activity uptake in tumor (PC3-pip xenografts; [4]): 29 ± 3 %IA/g | tumor-to-blood ratio (PC3-pip xenografts; [4]): 28 ± 6 ^b | tumor-to-bone ratio (PC3-pip xenografts; [4]): 65 ± 15 ^b ^, ^d | tumor-to-kidney ratio (PC3-pip xenografts; [4]): 0.6 ± 0.1 ^b ^, ^c | tumor-to-liver ratio (PC3-pip xenografts; [4]): 32 ± 7 ^b | tumor-to-lung ratio (PC3-pip xenografts; [4]): 23 ± 4 ^b | tumor-to-muscle ratio (PC3-pip xenografts; [4]): 101 ± 28 ^b | tumor-to-pancreas ratio (PC3-pip xenografts; [4]): 69 ± 13 | tumor-to-salivary gland ratio (PC3-pip xenografts; [4]): 42 ± 8 ^b ^, ^d | tumor-to-small intestines ratio (PC3-pip xenografts; [4]): 51 ± 20 | tumor-to-spleen ratio (PC3-pip xenografts; [4]): 12 ± 2 ^b | tumor-to-stomach ratio (PC3-pip xenografts; [4]): 61 ± 7 ^d | activity in carcass (PC3-pip xenografts; [5]): 4 ± 1 ^d %IA/sample | activity in intestines with content (PC3-pip xenografts; [5]): 5.4 ± 0.3 ^c, ^d %IA/sample | activity uptake in blood (PC3-pip xenografts; [5]): 0.3 ± 0.1 ^c ^, ^d %IA/g | activity uptake in bone (PC3-pip xenografts; [5]): 0.10 ± 0.02 %IA/g | activity uptake in kidney (PC3-pip xenografts; [5]): 33 ± 3 ^c, ^d %IA/g | activity uptake in liver (PC3-pip xenografts; [5]): 0.4 ± 0.1 ^c %IA/g | activity uptake in lung (PC3-pip xenografts; [5]): 0.4 ± 0.1 ^c %IA/g | activity uptake in muscle (PC3-pip xenografts; [5]): 0.10 ± 0.03 %IA/g | activity uptake in pancreas (PC3-pip xenografts; [5]): 0.3 ± 0.2 %IA/g | activity uptake in salivary gland (PC3-pip xenografts; [5]): 0.2 ± 0.1 ^d %IA/g | activity uptake in small intestines (PC3-pip xenografts; [5]): 0.4 ± 0.2 %IA/g | activity uptake in spleen (PC3-pip xenografts; [5]): 1.4 ± 0.3 ^c %IA/g | activity uptake in stomach (PC3-pip xenografts; [5]): 1.6 ± 1.2 ^c %IA/g | tumor-to-bone ratio (PC3-pip xenografts; [5]): 341 ± 100 ^d | tumor-to-kidney ratio (PC3-pip xenografts; [5]): 1.0 ± 0.2 ^c | tumor-to-liver ratio (PC3-pip xenografts; [5]): 79 ± 22 ^c | tumor-to-lung ratio (PC3-pip xenografts; [5]): 71 ± 15 ^c | tumor-to-muscle ratio (PC3-pip xenografts; [5]): 332 ± 99 | tumor-to-pancreas ratio (PC3-pip xenografts; [5]): 140 ± 82 ^c | tumor-to-salivary gland ratio (PC3-pip xenografts; [5]): 141 ± 42 | tumor-to-small intestines ratio (PC3-pip xenografts; [5]): 94 ± 38 ^c | tumor-to-spleen ratio (PC3-pip xenografts; [5]): 22 ± 5 ^c | tumor-to-stomach ratio (PC3-pip xenografts; [5]): 38 ± 39 ^c | activity in carcass (PC3-pip xenografts; [6]): 4±1 %IA/sample | activity in intestines with content (PC3-pip xenografts; [6]): 5.4±0.3 %IA/sample | activity uptake in blood (PC3-pip xenografts; [6]): 0.3±0.1 %IA/g | activity uptake in bone (PC3-pip xenografts; [6]): 0.10±0.02 %IA/g | activity uptake in kidney (PC3-pip xenografts; [6]): 33±3 %IA/g | activity uptake in liver (PC3-pip xenografts; [6]): 0.4±0.1 %IA/g | activity uptake in lung (PC3-pip xenografts; [6]): 0.4±0.1 %IA/g | activity uptake in muscle (PC3-pip xenografts; [6]): 0.10±0.03 %IA/g | activity uptake in pancreas (PC3-pip xenografts; [6]): 0.3±0.2 %IA/g | activity uptake in salivary gland (PC3-pip xenografts; [6]): 0.2±0.1 %IA/g | activity uptake in small intestines (PC3-pip xenografts; [6]): 0.4±0.2 %IA/g | activity uptake in spleen (PC3-pip xenografts; [6]): 1.4±0.3 %IA/g | activity uptake in stomach (PC3-pip xenografts; [6]): 1.6±1.2 %IA/g | activity uptake in tumor (PC3-pip xenografts; [6]): 31±4 %IA/g | excretion pathway (PC3-pip xenografts; PC3-pip xenografts): predominantly renal | maximum of internalized activity (PC3-pip cells [3]): 42–43 % of cell-associated activity

Reference: publication PMC12519282, “Reduction of Negative Charge in Mercaptoacetyl-Based Chelators Influences the Biodistribution of Prostate-Specific Membrane Antigen-Targeting Pseudopeptides Labeled with Technetium-99m” (ACS Pharmacology & Translational Science, 2025)
